PubChem BioAssay AID212 (DTP/NCI, 2004)
Several values for one entry are separate records, joined by “and”; a condition that tells them apart may be missing. Equal values may be shown once. Records with an inconclusive call do not appear.

System: BDF1 mice, colon carcinoma 38 sc, T/C %
Experiment: NCI In Vivo Anticancer Drug Screen. Data for tumor model Colon Carcinoma 38 (subcutaneous) in B6D2F1 (BDF1) mice
Conditions: endpoint: median tumor weight (est.), higher = larger tumour
Procedure, shortened: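 Ratio of survival or tumor size, compound-treated animals relative to vehicle controls, in tumor-bearing mice.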

[1] = dose: 100.0 mg/kg/injection, schedule: Q07DX002 (ip), vehicle: Klucel (hydroxypropylcellulose) (HPC)
[2] = dose: 25.0 mg/kg/injection, schedule: Q07DX002 (ip), vehicle: saline with Tween-80
[3] = dose: 50.0 mg/kg/injection, schedule: Q07DX002 (ip), vehicle: saline with Tween-80
[4] = dose: 100.0 mg/kg/injection, schedule: Q07DX002 (ip), vehicle: saline with Tween-80
[5] = dose: 200.0 mg/kg/injection, schedule: Q07DX002 (ip), vehicle: saline with Tween-80
[6] = dose: 12.5 mg/kg/injection, schedule: Q07DX002 (ip), vehicle: saline with Tween-80

## O=C1NC(=O)NC(C(=O)O)N1
dose: 56.25 mg/kg/injection, schedule: Q01DX001 (ip), vehicle: DMSO
  T/C: 90 % of control
dose: 56.25 mg/kg/injection, schedule: Q07DX002 (ip), vehicle: DMSO
  T/C: 122 % of control
dose: 112.5 mg/kg/injection, schedule: Q01DX001 (ip), vehicle: DMSO
  T/C: 101 % of control
dose: 112.5 mg/kg/injection, schedule: Q07DX002 (ip), vehicle: DMSO
  T/C: 121 % of control
dose: 225.0 mg/kg/injection, schedule: Q01DX001 (ip), vehicle: DMSO
  T/C: 97 % of control
dose: 225.0 mg/kg/injection, schedule: Q07DX002 (ip), vehicle: DMSO
  T/C: 75 % of control
dose: 450.0 mg/kg/injection, schedule: Q01DX001 (ip), vehicle: DMSO
  T/C: 97 % of control
dose: 450.0 mg/kg/injection, schedule: Q07DX002 (ip), vehicle: DMSO
  T/C: 101 % of control
dose: 900.0 mg/kg/injection, schedule: Q01DX001 (ip), vehicle: DMSO
  T/C: 71 % of control
dose: 900.0 mg/kg/injection, schedule: Q07DX002 (ip), vehicle: DMSO
  T/C: 108 % of control
dose: 1800.0 mg/kg/injection, schedule: Q07DX002 (ip), vehicle: DMSO
  T/C: 112 % of control

## COc1cc(OC)c(OC)cc1/C=C\c1ccnc2ccccc12
dose: 12.5 mg/kg/injection, schedule: Q07DX002 (ip), vehicle: Klucel (hydroxypropylcellulose) (HPC)
  T/C: 93 % of control
dose: 25.0 mg/kg/injection, schedule: Q07DX002 (ip), vehicle: Klucel (hydroxypropylcellulose) (HPC)
  T/C: 120 % of control
dose: 50.0 mg/kg/injection, schedule: Q07DX002 (ip), vehicle: Klucel (hydroxypropylcellulose) (HPC)
  T/C: 160 % of control and 171 % of control
[1]
  T/C: 85 % of control and 97 % of control
dose: 400.0 mg/kg/injection, schedule: Q07DX002 (ip), vehicle: Klucel (hydroxypropylcellulose) (HPC)
  T/C: 120 % of control

## Cc1ccc(NC(=O)Oc2ccc(Br)cc2Br)c([N+](=O)[O-])c1
[2]
  T/C: 111 % of control and 102 % of control
[3]
  T/C: 51 % of control and 62 % of control
[4]
  T/C: 86 % of control and 94 % of control
[5]
  T/C: 65 % of control and 79 % of control

## CNNCc1ccc(C(=O)NC(C)C)cc1
dose: 50.0 mg/kg/injection, schedule: Q07DX003 (ip), vehicle: saline
  T/C: 110 % of control
dose: 100.0 mg/kg/injection, schedule: Q07DX003 (ip), vehicle: saline
  T/C: 123 % of control
dose: 200.0 mg/kg/injection, schedule: Q07DX003 (ip), vehicle: saline
  T/C: 99 % of control
dose: 400.0 mg/kg/injection, schedule: Q07DX003 (ip), vehicle: saline
  T/C: 35 % of control

## CC[C@@]1(O)C[C@H](OC2CC(N(C)C)C(OC3CC(O)C(OC4CC(O)C(O)C(C)O4)C(C)O3)C(C)O2)c2c(cc3c(c2O)C(=O)c2c(O)ccc(O)c2C3=O)[C@H]1C(=O)OC (stereo not given in full)
dose: 1.5 mg/kg/injection, schedule: Q07DX003 (ip), vehicle: Klucel (hydroxypropylcellulose) (HPC)
  T/C: 95 % of control
dose: 3.0 mg/kg/injection, schedule: Q07DX003 (ip), vehicle: Klucel (hydroxypropylcellulose) (HPC)
  T/C: 72 % of control

## COC(=O)C1(F)C(=O)NC(=O)NC1OC (stereo not given)
[1]
  T/C: 90 % of control
[4]
  T/C: 83 % of control
dose: 200.0 mg/kg/injection, schedule: Q07DX002 (ip), vehicle: Klucel (hydroxypropylcellulose) (HPC)
  T/C: 72 % of control
[5]
  T/C: 83 % of control
dose: 400.0 mg/kg/injection, schedule: Q07DX002 (ip), vehicle: saline with Tween-80
  T/C: 55 % of control
dose: 800.0 mg/kg/injection, schedule: Q07DX002 (ip), vehicle: saline with Tween-80
  T/C: 85 % of control

## N#CN=[N+]([O-])c1ccc(C(=O)O)cc1
dose: 3.75 mg/kg/injection, schedule: Q07DX002 (ip), vehicle: Klucel (hydroxypropylcellulose) (HPC)
  T/C: 117 % of control and 123 % of control
dose: 7.5 mg/kg/injection, schedule: Q07DX002 (ip), vehicle: Klucel (hydroxypropylcellulose) (HPC)
  T/C: 124 % of control
dose: 15.0 mg/kg/injection, schedule: Q07DX002 (ip), vehicle: Klucel (hydroxypropylcellulose) (HPC)
  T/C: 87 % of control
dose: 60.0 mg/kg/injection, schedule: Q07DX002 (ip), vehicle: Klucel (hydroxypropylcellulose) (HPC)
  T/C: 159 % of control

## Cc1ccc(S(=O)(=O)NC(=S)S)cc1
[6]
  T/C: 108 % of control
[2]
  T/C: 54 % of control
[3]
  T/C: 116 % of control
[4]
  T/C: 100 % of control
[5]
  T/C: 60 % of control

## CCc1ccc(C2=C(O)C(=O)C(c3ccc(CC)cc3)=C(O)C2=O)cc1
dose: 3.12 mg/kg/injection, schedule: Q07DX002 (ip), vehicle: saline with Tween-80
  T/C: 51 % of control
[6]
  T/C: 124 % of control
[2]
  T/C: 96 % of control
[3]
  T/C: 81 % of control
